In data set [1] the test system is immortalized SMA fibroblasts. Nature of the data set: Distribution of the SMN protein to Cajal bodies (CBs) in immortalized SMA fibroblasts, immunolabeling, cells counted. The class given is cell-based, human. As to conditions: for induction factor of cells with SMN protein in CBs (DMSO = 1): 24 hours of treatment at 2 micrograms/ml, immortalized SMA fibroblasts; for Maximum induction: at 2 μg/ml, DMSO = 1; for Maximum induction / Dilution at EC50: immortalized type I line; for Dilution at EC50: dilution relative to 2 μg/ml. As for the experimental part:
This immortalization is described in the publication Lefebvre S, Burlet P, Viollet L, Bertrandy S, Huber C, Belser C and Munnich A. A novel association of the SMN protein with major non-ribosomal nucleolar proteins and its implication in spinal muscular atrophy. Hum Mol Genet (2002) 11 (9): 1017-1027.
The blockers of the invention are commercially available (for example from Sigma-Aldrich) and are sold in 96-well plates, at 2 milligrams per molecule per well to be dissolved in 1 ml of DMSO.
In order to determine whether the calcium channel blockers exerted a positive effect, the inventors counted the cells which had the SMN protein located in the CBs out of 100 cells randomly selected for each experiment.
This experiment was repeated three times.
A value of induction by a factor equal to 1 was arbitrarily assigned to DMSO.
In order to evaluate the relationship between the concentration (dose) and the effect (response) on the CBs of the immortalized SMA cells, the inventors constructed a dose-response curve for each of the molecules.

For data set [2], the system named is immortalized SMA cells. Nature of the data set: Co-immunolabeling of coilin and TMG cap: snRNPs at the level of CBs in immortalized SMA cells. It is filed as cell-based, human. As to conditions: 24 hours of treatment; chi-2, 0.001<p<0.01; n=300 cells. How it is done: Co-immunolabeling experiments similar to the previous ones were carried out on the immortalized SMA cells using two commercial antibodies, one specific for the coilin protein (CBs marker) and the other for the trimethylguanosine (TMG) cap of the small nuclear RNAs of snRNPs.
These tests show an increase in the SMN protein and in the snRNPs in Cajal bodies in the immortalized SMA line from the severe form of the disease (type I), induced by the calcium channel blockers of the invention. The mean value for the snRNPs is calculated from the three experiments (n=300 cells).

The conditions of data set [3]: humans, cited from earlier work; for maximum plasma level: oral, 10 mg per day.
Data set [4] has as its system amyotrophic lateral sclerosis. The settings on record: ALS patients; cited from earlier work.

Counter-ions that a name gives are not always drawn. Like-named read-outs stand apart in the source and are kept apart here.

Turning to `NCC1(CC(=O)O)CCCCC1` [Gabapentin, 2-[1-(aminomethyl)cyclohexyl]acetic acid], in data set [1], the “induction factor of cells with SMN protein in CBs (DMSO = 1)” value (“induction factor of cells” for short) is reported as “approximately 3.3”, the Maximum induction turned out to be 4.4 ± 1.0 and the “Dilution at EC50” value was 1/55. The molecule further yielded an EC50 in data set [1] (Homo sapiens, Fibroblast) of 210 ± 38 nM.
On to `Fc1ccc(C(c2ccc(F)cc2)N2CCN(C/C=C/c3ccccc3)CC2)cc1` [Flunarizine dihydrochloride, flunarizine dihydrochloride], for which, in data set [1], the “induction factor of cells” value is “approximately 4.8”, the Maximum induction amounted to 4.8 ± 1.5 and the “Dilution at EC50” value is given as 1/53. In addition, in data set [1] (compounds diluted to 1/1000 compared with examples 1 and 2, FIG. 1), the “induction factor of SMN protein distribution to CBs (DMSO = 1)” value was 1.2. Moreover, the “snRNPs at the level of the CBs” value in data set [2] is given as “significant increase”. In data set [3], the maximum plasma level entry is given as “approximately 81±16 nanograms/ml” and the elimination half-life entry is reported as “long”. Also, the maximum plasma level result in data set [3] (converted from ng/ml) is given as “approximately 170±34 nM”.
As for `Nc1nc2ccc(OC(F)(F)F)cc2s1` [Riluzole], in data set [4], the “improvement of patient prognosis” value is listed as 30%.
`CCCCc1oc2ccccc2c1C(=O)c1cc(I)c(OCCN(CC)CC)c(I)c1` [Amiodarone hydrochloride, (2-butyl-3-benzofuranyl)[4-[2-(diethylamino)ethoxy]-3,5-diiodophenyl]methanone hydrochloride]: in data set [1], the “induction factor of cells” value is listed as “approximately 2.8” and the Maximum induction is on record as 2.8 ± 1.0.
On to `CC(C)C[C@H](CN)CC(=O)O` [pregabalin], for which the “induction factor of cells” value in data set [1] worked out at 1.7.

The values above are taken from US20150238483A1, “Traitement des neuronopathies motrices” (CENTRE NATIONAL DE LA RECHERCHE SCIENTIFIQUE- CNRS, priority 2012, published 2015).
